Measured values: patent publication US9796753B2, “N-substituted indenoisoquinolines and syntheses thereof” (Purdue Research Foundation, priority 2005, dated 2017)
Like-named read-outs stand apart in the source and are kept apart here.

Legend:
breast MCF-7 = assay: NCI60 antiproliferative activity, cytotoxicity GI50; format: cell-based, human
Description: Selected compounds were tested for antiproliferative activity in the National Cancer Institute's developmental therapeutics assay 60 cell line screen (NCI60). The cells were incubated with the tested compounds at 100, 10, 1, 0.1, and 0.01 μM concentrations for 48 h before treatment with sulforhodamine B dye. Optical densities were recorded, and their ratios relative to that of the control were plotted as percentage growth against the log 10 of the tested compound concentrations.

CNS SF-539 = assay: COMPARE screening (NCI human cancer cell line screen), cytotoxicity GI50; format: cell-based
How it was run: (§1)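 Read-out is sulforhodamine B optical density, expressed as a ratio to untreated control and plotted as percentage growth against log10 compound concentration. Exposure lasted 48 h at five concentrations from 100 to 0.01 μM in the NCI60 screen.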

ovarian OVCAR-3 = assay: as above; format: cell-based
How it was run: as §1

prostate DU-145 = assay: as above; format: cell-based
How it was run: as §1

colon HCT-116 = assay: as above; format: cell-based
How it was run: as §1

melanoma UACC-62 = assay: as above; format: cell-based
How it was run: as §1

lung HOP-62 = assay: as above; format: cell-based
How it was run: as §1

renal SN12C = assay: as above; format: cell-based
How it was run: as §1

[1] = test system: all human cancer cell lines successfully tested; assay: NCI screen mean graph midpoint (MGM) for growth inhibition; format: cell-based
How it was run: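 NCI60 panel cells exposed to compound at 100, 10, 1, 0.1 and 0.01 μM for 48 h, then sulforhodamine B staining. Percentage growth versus control plotted against log concentration; MGM is the midpoint across all lines tested.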

breast MDA-MB-435 = assay: COMPARE screening (NCI human cancer cell line screen), cytotoxicity GI50; format: cell-based; conditions: Homo sapiens
Description: COMPARE screening. The compounds described herein were examined for antiproliferative activity against the human cancer cell lines in the National Cancer Institute screen (COMPARE screening), in which the activity of each compound was evaluated with approximately 55 different cancer cell lines of diverse tumor origins. […] Therefore, the MGM value represents an overall assessment of toxicity of the compound across numerous cell lines.

[2] = MDA-MB-435, read-out: cytotoxicity (GI50) breast MDA-MB-435
[3] = Homo sapiens, CNSSF-539, read-out: cytotoxicity (GI50) CNS SF-539
[4] = Homo sapiens, OVCAR-3, read-out: cytotoxicity (GI50) ovarian OVCAR-3
[5] = Homo sapiens, DU-145, read-out: cytotoxicity (GI50) prostate DU-145
[6] = Homo sapiens, HCT-116, read-out: cytotoxicity (GI50) colon HCT-116
[7] = Homo sapiens, UACC-62, read-out: cytotoxicity (GI50) melanoma UACC-62
[8] = Homo sapiens, HOP-62, read-out: cytotoxicity (GI50) lung HOP-62
[9] = Homo sapiens, SN12C, read-out: cytotoxicity (GI50) renal SN12C
[10] = Table 1, average GI50 of all cell lines tested (approximately 55), test range 10^−8 to 10^−4 molar

Which results are given for `COc1cc2c(=O)n(CCCN3CCOCC3)c3c(c2cc1O)C(=O)c1cc2c(cc1-3)OCO2` [Compound 18]?
GI50 (breast MCF-7): 100 nM; GI50 (CNS SF-539): 0.3 µM; GI50 (ovarian OVCAR-3): 900 nM; GI50 (prostate DU-145): 0.3 µM; GI50 (colon HCT-116): 0.39 µM; GI50 (melanoma UACC-62): 0.3 µM; GI50 (lung HOP-62): 0.3 µM; GI50 (renal SN12C): 0.2 µM; MGM (mean GI50 across cell lines) ([1]; Table 6, all human cancer cell lines successfully tested, range 10^−8 to 10^−4 molar, with standard error): 400 ± 5 nM

For `Cl.NCCCCCCCn1c2c(c3ccccc3c1=O)C(=O)c1ccccc1-2` [Compound 5aq, 6-(7-Aminoheptyl)-5,6-dihydro-5,11-dioxo-11H-indeno[1,2-c]isoquinoline Hydrochloride], which GI50 (breast MDA-MB-435; [2]) is on record?
Its GI50 is 2.24 µM.

What about the GI50 (CNS SF-539; [3]) of the same molecule?
Its GI50 is 1.78 µM.

What about the GI50 (ovarian OVCAR-3; [4]) of the same molecule?
Its GI50 is 1700 nM.

And the GI50 (prostate DU-145; [5])?
The GI50 was 0.832 µM.

And the GI50 (colon HCT-116; [6])?
Its GI50 is 1.26 µM.

What about the GI50 (melanoma UACC-62; [7]) of the same molecule?
The GI50 was 2 µM.

And the GI50 (lung HOP-62; [8])?
Its GI50 is 1.2 µM.

What about the GI50 (renal SN12C; [9]) of the same molecule?
Its GI50 is 1.66 µM.

What about the “MGM (mean graph midpoint for growth inhibition)” value [1, 10] of the same molecule?
Its value is 1.66 ± 0.155 µM.

And the melting point?
The melting point was 228 to 231 °C.

With `Cl.NCCCCCCCCCn1c2c(c3ccccc3c1=O)C(=O)c1ccccc1-2` [Compound 5as, 6-(9-Aminononyl)-5,6-dihydro-5,11-dioxo-11H-indeno[1,2-c]isoquinoline Hydrochloride] as the molecule, how does the GI50 (breast MDA-MB-435; [2]) read?
The GI50 was 9.55 µM.

And the GI50 (CNS SF-539; [3])?
Its GI50 is 9.77 µM.

What about the GI50 (ovarian OVCAR-3; [4]) of the same molecule?
Its GI50 is 9550 nM.

And the GI50 (prostate DU-145; [5])?
Its GI50 is 6.03 µM.

What about the GI50 (colon HCT-116; [6]) of the same molecule?
Its GI50 is 6.46 µM.

What about the GI50 (melanoma UACC-62; [7]) of the same molecule?
Its GI50 is 9.33 µM.

What about the GI50 (lung HOP-62; [8]) of the same molecule?
Its GI50 is 6.76 µM.

What about the GI50 (renal SN12C; [9]) of the same molecule?
The GI50 was 8.51 µM.

And the MGM (mean GI50 across cell lines) [1, 10]?
Its MGM (mean GI50 across cell lines) is 8130 nM.

What about the melting point of the same molecule?
Its melting point is 204 to 207 °C.

Which GI50 (breast MDA-MB-435; MDA-MB-435, Table 1, concentration corresponding to 50% growth inhibition, read-out: cytotoxicity (GI50) breast MDA-MB-435) does the source give for `CC[C@@]1(O)C(=O)OCc2c1cc1n(c2=O)Cc2cc3ccccc3nc2-1` [Compound S-1, camptothecin, reference compound] here?
The GI50 was 0.04 µM.

And the GI50 (breast MDA-MB-435; breast MDA-MB-435, concentration corresponding to 50% growth inhibition, read-out: cytotoxicity (GI50 in μM) breast MDA-MB-435)?
The GI50 was 0.04 µM.

And the GI50 (breast MCF-7; Homo sapiens, MCF7, Table 6, NCI60, 48 h, sulforhodamine B, read-out: Cytotoxicity (GI50) breast MCF-7)?
Its GI50 is 10 nM.

What about the GI50 (CNS SF-539; Homo sapiens, CNSSF-539, CNS SF-539, concentration corresponding to 50% growth inhibition, read-out: cytotoxicity (GI50 in μM) CNS SF-539) of the same molecule?
The GI50 was 0.01 µM.

And the GI50 (CNS SF-539; Homo sapiens, CNSSF-539, Table 1, concentration corresponding to 50% growth inhibition, read-out: cytotoxicity (GI50) CNS SF-539)?
The GI50 was 0.01 µM.

And the GI50 (prostate DU-145; Homo sapiens, DU-145, Table 1, concentration corresponding to 50% growth inhibition, read-out: cytotoxicity (GI50) prostate DU-145)?
The GI50 was 0.01 µM.

And the GI50 (prostate DU-145; Homo sapiens, DU-145, Table 6, NCI60, 48 h, sulforhodamine B, read-out: Cytotoxicity (GI50) prostate DU-145)?
Its GI50 is 0.01 µM.

What about the GI50 (prostate DU-145; Homo sapiens, prostate DU-145, concentration corresponding to 50% growth inhibition, read-out: cytotoxicity (GI50 in μM) prostate DU-145) of the same molecule?
Its GI50 is 0.01 µM.

What about the GI50 (colon HCT-116; Homo sapiens, HCT-116, Table 1, concentration corresponding to 50% growth inhibition, read-out: cytotoxicity (GI50) colon HCT-116) of the same molecule?
Its GI50 is 0.03 µM.

What about the GI50 (colon HCT-116; Homo sapiens, HCT-116, Table 6, NCI60, 48 h, sulforhodamine B, read-out: Cytotoxicity (GI50) Colon HCT-116) of the same molecule?
The GI50 was 0.03 µM.

What about the GI50 (colon HCT-116; Homo sapiens, colon HCT-116, concentration corresponding to 50% growth inhibition, read-out: cytotoxicity (GI50 in μM) colon HCT-116) of the same molecule?
The GI50 was 0.03 µM.

And the GI50 (melanoma UACC-62; Homo sapiens, UACC-62, Table 1, concentration corresponding to 50% growth inhibition, read-out: cytotoxicity (GI50) melanoma UACC-62)?
The GI50 was 0.01 µM.

What about the GI50 (melanoma UACC-62; Homo sapiens, UACC-62, Table 6, NCI60, 48 h, sulforhodamine B, read-out: Cytotoxicity (GI50) melanoma UACC-62) of the same molecule?
Its GI50 is 0.01 µM.

What about the GI50 (melanoma UACC-62; Homo sapiens, melanoma UACC-62, concentration corresponding to 50% growth inhibition, read-out: cytotoxicity (GI50 in μM) melanoma UACC-62) of the same molecule?
The GI50 was 0.01 µM.

What about the GI50 (lung HOP-62; Homo sapiens, HOP-62, Table 1, concentration corresponding to 50% growth inhibition, read-out: cytotoxicity (GI50) lung HOP-62) of the same molecule?
Its GI50 is 0.01 µM.

What about the GI50 (lung HOP-62; Homo sapiens, HOP-62, Table 6, NCI60, 48 h, sulforhodamine B, read-out: Cytotoxicity (GI50) lung HOP-62) of the same molecule?
The GI50 was 0.01 µM.

What about the GI50 (lung HOP-62; Homo sapiens, lung HOP-62, concentration corresponding to 50% growth inhibition, read-out: cytotoxicity (GI50 in μM) lung HOP-62) of the same molecule?
Its GI50 is 0.01 µM.

What about the GI50 (renal SN12C; Homo sapiens, SN12C, Table 1, concentration corresponding to 50% growth inhibition, read-out: cytotoxicity (GI50) renal SN12C) of the same molecule?
The GI50 was 0.02 µM.

And the GI50 (renal SN12C; Homo sapiens, SN12C, Table 6, NCI60, 48 h, sulforhodamine B, read-out: Cytotoxicity (GI50) renal SN12C)?
Its GI50 is 0.02 µM.

And the GI50 (renal SN12C; Homo sapiens, renal SN12C, concentration corresponding to 50% growth inhibition, read-out: cytotoxicity (GI50 in μM) renal SN12C)?
The GI50 was 0.02 µM.

And the GI50 ([1]; Homo sapiens, read-out: MGM GI50)?
Its GI50 is 40.5 ± 18.7 nM.

And the “MGM (mean graph midpoint for growth inhibition)” value [1, 10]?
Its value is “.0405 ± 0.0187 µM”.

What about the GI50 ([1]; all human cancer cell lines successfully tested, read-out: MGM (mean graph midpoint for growth inhibition)) of the same molecule?
The GI50 was 40.5 ± 18.7 nM.

With `Cl.NCCCCCCCCCCCn1c2c(c3ccccc3c1=O)C(=O)c1ccccc1-2` [Compound 5au, 6-(11-Aminoundecyl)-5,6-dihydro-5,11-dioxo-11H-indeno[1,2-c]isoquinoline Hydrochloride] as the molecule, how does the GI50 (breast MDA-MB-435; [2]) read?
The GI50 was 11 µM.

What about the GI50 (CNS SF-539; [3]) of the same molecule?
Its GI50 is 2.04 µM.

What about the GI50 (ovarian OVCAR-3; [4]) of the same molecule?
The GI50 was 2090 nM.

What about the GI50 (prostate DU-145; [5]) of the same molecule?
Its GI50 is 4.57 µM.

And the GI50 (colon HCT-116; [6])?
Its GI50 is 1.91 µM.

What about the GI50 (melanoma UACC-62; [7]) of the same molecule?
Its GI50 is 1.7 µM.

And the GI50 (lung HOP-62; [8])?
The GI50 was 2.19 µM.

And the GI50 (renal SN12C; [9])?
The GI50 was 2 µM.

And the MGM (mean GI50 across cell lines) [1, 10]?
Its MGM (mean GI50 across cell lines) is 5130 nM.

What about the melting point of the same molecule?
Its melting point is 125 to 129 °C.
